According to US20250188110A1, “SPECIFIC SMALL MOLECULE INHIBITORS THAT BLOCK KMT9 METHYLTRANSFERASE ACTIVITY AND FUNCTION” (ALBERT-LUDWIGS-UNIVERSITÄT FREIBURG, priority 2021, published 2025):
Where two headings read alike, the source gives them in different places. Each block holds one molecule with its values, some of them ahead of it.

Legend:
SKBR3 = assay: Further cell proliferation assay, X-Celligence RTCA, SKBR3; format: cell-based; details: Homo sapiens, SK-BR-3
Experimental: (§1) Compound no. 1 (Name 287) was tested in further cell proliferation assays using different cancer cell lines. Cell proliferation was determined using X-Celligence RTCA system (Roche). For real-time recording of CAL-29, VM-CUB1, SW480, SKBR3, HT-1376, PC-3M, A549, UM-UC-3, DU145 and 22RV1, between 2500 and 20000 cells/well (depending on the cell type) were seeded in 16 well E-plates (Roche). Cells were seeded in presence of DMSO or Compound no. 1 (Name 287) 24 h before seeding in E-plates. Cell indices were automatically recorded every 15 minutes. Relative velocities represent the change of the cell index over time. The ECso values of compound no.

PC-3M = assay: Further cell proliferation assay, X-Celligence RTCA, PC-3M; format: cell-based; details: Homo sapiens, castration resistant prostate cancer cells
Experimental: as §1

VM-CUB1 = assay: Further cell proliferation assay, X-Celligence RTCA, VM-CUB1; format: cell-based; details: Homo sapiens, VM-CUB-1
Experimental: as §1

22RV1 = assay: Further cell proliferation assay, X-Celligence RTCA, 22RV1; format: cell-based; details: Homo sapiens; 22RV1, castration resistant prostate cancer cells
Experimental: as §1

DU145 = assay: Further cell proliferation assay, X-Celligence RTCA, DU145; format: cell-based; details: Homo sapiens, DU-145; DU145, castration resistant prostate cancer cells
Experimental: as §1

SW480 = assay: Further cell proliferation assay, X-Celligence RTCA, SW480; format: cell-based; details: Homo sapiens
Experimental: as §1

HT-1376 = assay: Further cell proliferation assay, X-Celligence RTCA, HT-1376; format: cell-based; details: Homo sapiens
Experimental: as §1

CAL-29 = assay: Further cell proliferation assay, X-Celligence RTCA, CAL-29; format: cell-based
Experimental: as §1

A549 = assay: Further cell proliferation assay, X-Celligence RTCA, A549; format: cell-based; details: Homo sapiens
Experimental: as §1

UM-UC-3 = assay: Further cell proliferation assay, X-Celligence RTCA, UM-UC-3; format: cell-based; details: Homo sapiens, UMUC3
Experimental: as §1

KMT9 [1] = target: T1, KMT9 (Homo sapiens, UniProt Q9Y5N5); assay: Microscale thermophoresis (MST) KMT9 binding
T1 sequence (Q9Y5N5 1-214): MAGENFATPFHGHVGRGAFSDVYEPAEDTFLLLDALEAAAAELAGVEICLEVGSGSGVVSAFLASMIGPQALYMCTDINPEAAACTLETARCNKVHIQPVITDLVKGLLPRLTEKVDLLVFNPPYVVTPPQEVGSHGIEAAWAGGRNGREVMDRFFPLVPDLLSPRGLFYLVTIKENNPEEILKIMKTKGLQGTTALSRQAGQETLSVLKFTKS
T1 sequence (Q9UI30 1-120 isoform Q9UI30-2 partner): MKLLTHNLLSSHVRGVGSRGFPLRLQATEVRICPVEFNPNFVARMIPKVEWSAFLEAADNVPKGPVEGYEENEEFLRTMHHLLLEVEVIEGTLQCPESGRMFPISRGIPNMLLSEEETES
How it was run: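 His-tagged KMT9 (20 nM), RED-Tris-NTA labelled, titrated with varying compound concentrations in 25 mM HEPES pH 7.5, 100 mM NaCl, 1 mM DTT, 0.05% Tween. MST at 40% MST and 100% LED power, Nano-RED excitation; Kd binned A ≤10 nM, B 10–100, C 100–1000, D >1000 nM.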

KMT9 [2] = target: T1, KMT9; assay: KMT9 methyltransferase inhibition assay, MTaseGlo luminescence (from entry 155); format: biochemical; details: 100 nM KMT9, 5 μM ETF1, 1 μM SAM
How it was run: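 KMT9 (100 nM final) pre-incubated with inhibitor for 15 min at room temperature, then reacted with 5 μM ETF1 and 1 μM SAM for 2 h at 30° C. at 2% DMSO final. MTaseGlo luminescence read after 60 min detection; IC50 reported in four potency bins.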

KMT9 [3] = target: T1, KMT9; assay: KMT9 thermal shift assay (SyproOrange); format: binding
How it was run: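 Recombinant KMT9 was incubated with compound and SyproOrange at 25° C in 50 mM BTP pH 8.5, 1 mM MgCl2, 1 mM DTT. It was then heated from 20° C to 95° C at 1° C per 15 s with fluorescence read each step. Tm came from a Boltzmann sigmoidal fit; ΔTm relative to DMSO control, binned in 5 K ranges.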

[4] = His-tag labelled KMT9 20 nM, read-out: MST (Kd)
[5] = MTaseGlo procedure (entries from 155), read-out: Inhibition (IC50)
[6] = 500 µM compound, 2 μM KMT9, read-out: Thermal shift (ΔTm)

Compound: CNc1ncnc2c1ccn2[C@@H]1C[C@H](CNCCCNCCc2cccc(Oc3ccccc3)c2)[C@@H](O)[C@H]1O [Compound 287, (1R,2S,3R,5R)-3-(4-(methylamino)-7H-pyrrolo[2,3-d]pyrimidin-7-yl)-5-(((3-((3-phenoxyphenethyl)amino)propyl)amino)methyl) cyclopentane-1,2-diol]
EC50 (SKBR3): 6.6 µM
EC50 (PC-3M): 15.8 µM
EC50 (VM-CUB1): 6.17 µM
EC50 (22RV1): 16.6 µM
EC50 (DU145): 19 µM
EC50 (SW480): 9.12 µM
EC50 (HT-1376): 12.6 µM
EC50 (CAL-29): 6.45 µM
EC50 (A549): 12 µM
EC50 (UM-UC-3): 17 µM

Compound: Nc1cc(-c2cnsc2)cc([C@H]2C[C@@H](n3ccc4c(N)nc(Cl)nc43)[C@H](O)[C@@H]2O)c1 [Compound 681, (1R,2S,3R,5R)-3-(4-Amino-2-chloro-7H-pyrrolo[2,3-d]pyrimidin-7-yl)-5-(3-amino-5-(isothiazol-4-yl)phenyl)cyclopentane-1,2-diol]
Kd (KMT9 [1]; [4]): 0.01 to 0.1 µM
IC50 (KMT9 [2]; [5]): 0.1 to 1 µM
ΔTm at 500 µM (KMT9 [3]; [6]): 10 to 15 °C

Compound: Nc1ncnc2c1ccn2[C@@H]1C[C@H](c2cccc(-c3cn[nH]c3)c2)[C@@H](O)[C@H]1O [Compound 652, (15,2R,3R,5R)-3-(3-(1H-pyrazol-4-yl)phenyl)-5-(4-amino-7H-pyrrolo[2,3-d]pyrimidin-7-yl)cyclopentane-1,2-diol]
Kd (KMT9 [1]; His-tag labelled KMT9 20 nM, Kd class, read-out: MST): > 1 µM
IC50 (KMT9 [2]; IC50 class, MTaseGlo procedure (entries from 155 on), read-out: Inhibition): > 10 µM
ΔTm at 500 µM (KMT9 [3]; ΔTm class, 500 uM compound, 2 μM KMT9, read-out: Thermal shift): ≤ 10 °C

Compound: CCc1cn([C@@H]2C[C@H](CNCCCNCCc3ccc(C(F)(F)F)cc3)[C@@H](O)[C@H]2O)c2ncnc(N)c12 [Compound 379, (1R,2S,3R,5R)-3-(4-amino-5-ethyl-7H-pyrrolo[2,3-d]pyrimidin-7-yl)-5-(((3-((4-(trifluoromethyl)phenethyl)amino)propyl)amino)methyl) cyclopentane-1,2-diol]
Kd (KMT9 [1]; microscale thermophoresis, His-tag labelled KMT9 (20 nM), read-out: MST): 0.1 to 1 µM
IC50 (KMT9 [2]; from entry 155: MTaseGlo assay, read-out: Inhibition): 1 to 10 µM
ΔTm at 500 µM (KMT9 [3]; ΔTm, 500 µM compound, 2 μM KMT9, 5X SO, read-out: Thermal shift): 10 to 15 °C

More lines, now with the values ahead:

Kd (KMT9 [1]; [4]): ≤ 0.01 µM
IC50 (KMT9 [2]; [5]): 0.1 to 1 µM
ΔTm at 500 µM (KMT9 [3]; [6]): 15 to 20 °C
Compound: Nc1nc(Cl)nc2c1c(-c1nccs1)cn2[C@@H]1C[C@H](C2CCN(CCc3ccncc3)CC2)[C@@H](O)[C@H]1O [Compound 514, (1R,2S,3R,5R)-3-[4-amino-2-chloro-5-(1,3-thiazol-2-yl)pyrrolo[2,3-d]pyrimidin-7-yl]-5-{1-[2-(pyridin-4-yl)ethyl]piperidin-4-yl}cyclopentane-1,2-diol]

Kd (KMT9 [1]; [4]): 0.01 to 0.1 µM
IC50 (KMT9 [2]; [5]): 0.1 to 1 µM
ΔTm at 500 µM (KMT9 [3]; [6]): 10 to 15 °C
Compound: COc1ccc([C@H]2C[C@@H](n3ccc4c(N)nc(Cl)nc43)[C@H](O)[C@@H]2O)cc1 [Compound 682, (1R,2S,3R,5R)-3-{4-Amino-2-chloropyrrolo[2,3-d]pyrimidin-7-yl}-5-(4-methoxyphenyl)cyclopentane-1,2-diol]
